In ChEMBL document CHEMBL3046937, “Mass spectral characterization of fatty acid amides from alfalfa trichomes and their deterrence against the potato leafhopper” (Phytochemistry, 2005) one finds Activity data, which are given here for one compound.

What all share (format): functional, organism-based
Assay [1] deals with Empoasca fabae. As to the kind of experiment: Food deterrence activity against Empoasca fabae (potato leafhopper) assessed as deterring insect settling at 50 ug/cm2 through compound application to surface of sachet containing artificial diet measured at 15 min interval over next 350 min by two-choice bioassay.
Assay [2] concerns Empoasca fabae. As to the kind of experiment: Food deterrence activity against Empoasca fabae (potato leafhopper) assessed as deterring insect settling at 100 ug/cm2 through compound application to surface of sachet containing artificial diet measured at 15 min interval over next 350 min by two-choice bioassay.
For assay [3], the system named is Empoasca fabae. As to the kind of experiment: Food deterrence activity against Empoasca fabae (potato leafhopper) assessed as deterring insect settling at 12.5 to 100 ug/cm2 through compound application to surface of sachet containing artificial diet measured at 15 min interval over next 350 min by two-choice bioassay.
For assay [4], the system named is Empoasca fabae. Description: Food deterrence activity against Empoasca fabae (potato leafhopper) assessed as deterring insect settling at 12.5 ug/cm2 through compound application to surface of sachet containing artificial diet measured at 15 min interval over next 350 min by two-choice bioassay.
Assay [5] has as its system Empoasca fabae. As to the kind of experiment: Food deterrence activity against Empoasca fabae (potato leafhopper) assessed as deterring insect settling at 25 ug/cm2 through compound application to surface of sachet containing artificial diet measured at 15 min interval over next 350 min by two-choice bioassay.

Calls of active or inactive are those of the source. The rule behind the calls is not given here.

With `CCCCC/C=C\C/C=C\CCCCCCCC(=O)NCCC(C)C`, the outcome in the assay with Empoasca fabae [1], in the assay on Empoasca fabae [2] and with Empoasca fabae [5] was Active. Besides, in the assay on Empoasca fabae [3], the Activity entry was “Dose-dependent effect”. For the same compound, the outcome with Empoasca fabae [4] was inactive.
